Data as given in PMC9322314 (2022).

Experiments:
[1] = system: FdxT (DNA, hairpin, hexaethyleneglycol (HEG) loop between 9 and 10) TATAGCTATATAGCTATA; experiment: FRET melting; details: 10 mM K+, 90 mM Li+; 10 mM Li cacodylate pH 7.2, 0.2 μM DNA, 2 μM compound
[2] = system: 22AG (DNA, G4) AGGGTTAGGGTTAGGGTTAGGG; experiment: CD titration, Hill fit; details: 10 mM Li cacodylate pH 7.2, 3 μM DNA
[3] = system: 22AG (32P-labelled) (DNA, G4) AGGGTTAGGGTTAGGGTTAGGG; experiment: photoalkylation (365 nm), denaturing PAGE; details: 100 mM K+; covalent; 10 mM Li cacodylate pH 7.2, 10 μM DNA, 20 μM compound
[4] = system: Pu24T (32P-labelled) (DNA, G4) TGAGGGTGGTGAGGGTGGGGAAGG; experiment: photoalkylation (365 nm), denaturing PAGE; details: 100 mM K+; covalent; 10 mM Li cacodylate pH 7.2, 10 μM DNA, 20 μM compound
[5] = system: F21T (DNA, G4) GGGTTAGGGTTAGGGTTAGGG; experiment: FRET melting; details: 10 mM K+, 90 mM Li+; 10 mM Li cacodylate pH 7.2, 0.2 μM DNA, 20 μM compound
[6] = system: F(Pu24T)T (DNA, G4) TGAGGGTGGTGAGGGTGGGGAAGG; experiment: FRET melting; details: 1 mM K+, 99 mM Li+; 10 mM Li cacodylate pH 7.2, 0.2 μM DNA, 20 μM compound
[7] = system: F(c-Myc)T (DNA, G4) TTGAGGGTGGGTAGGGTGGGTAA; experiment: FRET melting; details: 1 mM K+, 99 mM Li+; 10 mM Li cacodylate pH 7.2, 0.2 μM DNA, 2 μM compound
[8] = system: F(c-Kit2)T (DNA, G4) GGGCGGGCGCGAGGGAGGGG; experiment: FRET melting; details: 1 mM K+, 99 mM Li+; 10 mM Li cacodylate pH 7.2, 0.2 μM DNA, 2 μM compound
[9] = system: F(21CTA)T (DNA, G4) GGGCTAGGGCTAGGGCTAGGG; experiment: FRET melting; details: 10 mM K+, 90 mM Li+; 10 mM Li cacodylate pH 7.2, 0.2 μM DNA, 2 μM compound
[10] = system: F(CEB25wt)T (DNA, G4) AAGGGTGGGTGTAAGTGTGGGTGGGT; experiment: FRET melting; details: 1 mM K+, 99 mM Li+; 10 mM Li cacodylate pH 7.2, 0.2 μM DNA, 2 μM compound

Row | Compound | binding [1] | binding ([2]; 100 mM K+) | binding ([2]; 100 mM Na+) | binding [3] | binding [4] | ΔT 1/2 [5] | ΔT 1/2 [6] | binding [7] | binding [8] | binding [9] | binding [10]
1 | CN(C)Cc1cc(C#Cc2cccc(C#Cc3ccc(O)c(CN(C)C)c3)c2)ccc1O | no | yes | yes | yes | yes |  |  |  |  |  | 
2 | CN(C)Cc1cc2cc(C#Cc3cccc(C#Cc4ccc5cc(O)c(CN(C)C)cc5c4)c3)ccc2cc1O | no | yes |  |  |  |  |  |  |  |  | 
3 | CN(C)Cc1ccc(C#Cc2cccc(C#Cc3ccc(CN(C)C)c(O)c3)c2)cc1O | no | yes | yes |  |  |  |  |  |  |  | 
4 | C[N+](C)(C)Cc1cc(C#Cc2cccc(C#Cc3ccc(O)c(C[N+](C)(C)C)c3)c2)ccc1O | no | yes | yes | yes | yes |  |  |  |  |  | 
5 | C[N+](C)(C)Cc1cc2cc(C#Cc3cccc(C#Cc4ccc5cc(O)c(C[N+](C)(C)C)cc5c4)c3)ccc2cc1O | no | yes | yes |  |  | 33.3 °C | 29.0 °C | yes | weak | weak | weak
6 | C[N+](C)(C)Cc1ccc(C#Cc2cccc(C#Cc3ccc(C[N+](C)(C)C)c(O)c3)c2)cc1O | no | yes | yes | yes | yes |  |  |  |  |  | 
